Measured values reported in ChEMBL document CHEMBL5236622, “Krasilnikolides A and B and Detalosylkrasilnikolide A, Cytotoxic 20-Membered Macrolides from the Genus Krasilnikovia: Assignment of Anomeric Configuration by J-Based Configuration Analysis” (J Nat Prod, 2022).
≈ marks a conversion by molar mass, not a printed value.

Columns and labels:
Kocuria rhizophila = test: Antibacterial activity against Kocuria rhizophila ATCC9341 assessed as inhibition of bacterial growth incubated for 20 hrs by liquid microculture method; type: functional
P388 = test: Cytotoxicity against mouse P388 cells assessed as inhibition of cell growth incubated for 48 hrs by MTT assay; type: functional, cell-based; settings: P388, 48 h
Staphylococcus aureus = test: Antibacterial activity against Staphylococcus aureus FDA209P JC-1 assessed as inhibition of bacterial growth incubated for 20 hrs by liquid microculture method; type: functional

Compound | MIC (Kocuria rhizophila) [µg/mL] | IC50 (P388) [µM] | MIC (Staphylococcus aureus) [µg/mL]
C/C=C(\C)[C@H]1OC(=O)[C@H](C)[C@@H](O)/C(C)=C/C=C/[C@H](C)C/C(C)=C/[C@@H](C)[C@H](O)C[C@@H](O)/C(C)=C/[C@H]1C | 25 (≈ 51.2 µM) | 3.9 | –
C/C=C(\CC)[C@H]1OC(=O)[C@H](C)[C@@H](O[C@@H]2O[C@@H](C)[C@@H](O)[C@@H](O)[C@H]2O)/C(C)=C/C=C/[C@H](C)C/C(C)=C/[C@@H](C)[C@H](O)C[C@@H](O)/C(C)=C/[C@H]1C | 25 (≈ 38.5 µM) | 8.4 | –
C/C=C(\C)[C@H]1OC(=O)[C@H](C)[C@@H](O[C@@H]2O[C@@H](C)[C@@H](O)[C@@H](O)[C@H]2O)/C(C)=C/C=C/[C@H](C)C/C(C)=C/[C@@H](C)[C@H](O)C[C@@H](O)/C(C)=C/[C@H]1C | 25 (≈ 39.4 µM) | 13.9 | 50 (≈ 78.8 µM)
